From patent US8673934B2, “Anti-infective agents and/or immunomodulators used for preventive therapy following an acute cerebrovascular accident” (priority 2002, dated 2014)

What was measured:
[1] = test system: mouse model of cerebral ischemia (MCAO); stroke-induced spontaneous bacterial infection (more than 95% Escherichia coli)
Protocol: (§1) According to the mouse model of cerebral ischemia, a generally accepted model of ischemic stroke, mice were operated according to the MCAO. In this operation, the A. cerebri media is occluded for about 60 minutes, leading to a cerebral infarction typical for this model. As a control, we use the so-called Sham-operation, in which the animals are also MCAO-operated, but in which the A. cerebri media is only occluded for about 1 minute. For the rest, the two paradigms are identical.

[2] = test system: mouse model of cerebral ischemia (MCAO); stroke-induced immunodepression and bacterial infection; assay: Immunomodulating therapy in mouse model of cerebral ischemia (MCAO): lymphopenia, lymphocyte/monocyte function, infections, survival; assay type: in vivo
Protocol: as §1, with “ischemia,” for “ischemia, a generally accepted model of ischemic stroke,”, “identical. Thus, the perioperative stress can be doubtlessly excluded as a systemic mistake for the following results.” for “identical.”
This severe lymphopenia persists at least for 14 days and also affects the spleen and the thymus (FIG. 6:d-g), which constitute essential organs of immunological maturation. Besides the mere numeric decrease, there also occurs a functional impairment with a disturbance of the cytokine secretion capacity after stimulation (FIG. 6: h and j). Besides the disturbance of monocyte function, which manifests as a disturbance of TNF-α secretion for 2 days after LPS-stimulation, one can also detect a lymphocyte alteration after ConA-stimulation; this alteration persisting for 14 days after the stroke and mainly causing a Th1- to Th2-shift (alteration of the IFN-γ/IL4 ratio), which means a loss of pro-inflammatory potential. […] B- and NK-cells only slightly decrease in the blood after the OP-stress. In the spleen and in the thymus, no major stress-induced alterations are detected and the functional parameters of the monocytes and lymphocytes remain at the control level. […] In contrast to this, no infection is found in the control animals (Sham-operated).
Furthermore, the blockade of the SNS by propranolol (30 mg/kg body weight) also prevents the disturbance of function of the remaining monocytes (TNF-α secretion) and of the lymphocytes (IFN-γ/IL-4 ratio) (FIG. 7). The SNS blockade can also prevent the development of infections in the lung (pneumonia) and in the blood (sepsis) (FIG. 7). The dose of propranolol (indicated as mg/kg body weight), which is required for the prevention or drastic reduction of the bacterial infections, also prevents the disturbed INF-γ secretion of the lymphocytes (FIG. 8). To this aim, the administration of propranolol has to be accomplished at a very early stage (immediately up to 12 hours) after the stroke. An application 24 hours after the stroke event has no effect (FIG. 8). An early (before the stroke) chemical sympathicolysis by 6-hydroxydopamin (6-OHDA) as well prevents the stroke-induced, disturbed INF-γ function of the lymphocytes and blocks the severe bacterial infections (FIG. 8).

[3] = early (before the stroke) chemical sympathicolysis, FIG. 8
[4] = after experimental stroke in mice, FIG. 7

COc1c(N2C[C@@H]3CCCN[C@@H]3C2)c(F)cc2c(=O)c(C(=O)O)cn(C3CC3)c12 [moxifloxacin, 1-cyclopropyl-6-fluoro-1,4-dihydro-8-methoxy-7-[(4aS,7aS)-octahydro-6H-pyrrolo[3,4-b]-pyridin-6-yl]-4-oxoquinoline-3-carboxylic acid]
neurological deficit ([1]; early administration within the first 24 h): drastically reduced | infections (pneumonia, sepsis) ([1]; very early (0-12 h) and somewhat later (12-24 h after acute stroke) treatment scheme): prevented | fever/hyperthermia ([1]; very early (0-12 h) and somewhat later (12-24 h after acute stroke) treatment scheme, FIG. 3): significantly reduced | neurological deficit after stroke ([1]; very early (0-12 h) and somewhat later (12-24 h after acute stroke) treatment scheme, FIG. 5): significantly reduced

NCCc1cc(O)c(O)cc1O [6-hydroxydopamin (6-OHDA), 6-hydroxydopamin]
severe bacterial infections [2, 3]: blocks | stroke-induced, disturbed INF-γ function of the lymphocytes [2, 3]: prevents

CC(C)NCC(O)COc1cccc2ccccc12 (centres unmarked) [propranolol]
disturbance of function of the lymphocytes (IFN-γ/IL-4 ratio) ([2]; 30 mg/kg body weight, FIG. 7): prevents | disturbance of function of the remaining monocytes (TNF-α secretion) ([2]; 30 mg/kg body weight, FIG. 7): prevents | survival after stroke ([2]; 30 mg/kg body weight, FIG. 10): drastically improve | infections ([2]; 30 mg/kg body weight, FIGS. 7 and 8): prevent | development of infections in the lung (pneumonia) and in the blood (sepsis) ([2]; SNS blockade, FIG. 7): prevent | decrease of T- and NK-cells [2, 4]: prevent | degree of B-cell lymphopenia [2, 4]: significantly reduce | effect on bacterial infections and INF-γ secretion of application 24 hours after the stroke event ([2]; application 24 hours after the stroke, FIG. 8): no effect | disturbed INF-γ secretion of the lymphocytes ([2]; dose required for prevention of bacterial infections, administration immediately up to 12 hours after the stroke, FIG. 8): prevents

B1: IFN-γ: pro-inflammatory cytokine, interferon (protein, UniProt P01579 24-161, looked up)
Interferon gamma: QDPYVKEAENLKKYFNAGHSDVADNGTLFLGILKNWKEESDRKIMQSQIVSFYFKLFKNFKDDQSIQKSVETIKEDMNVKFFNSNKKKRDDFEKLTNYSVTDLNVQRKAIHELIQVMAELSPAAKTGKRKRSQMLFRG
germ number in the lung ([2]; 2 μg, FIG. 9): reduce | germ number in the blood ([2]; 2 μg, even more pronounced than in the lung, FIG. 9): reduce
